Legend:
γH2A.X = γH2A.X Western blot (DNA damage marker); assay type: cell-based, human; details: SK-N-AS; 500 nM AOH1996 and/or 50 μM DRB overnight
RKO = experiment: Cell growth IC50, screening of AOH1160 analogs; assay type: cell-based; details: Homo sapiens, read-out: IC50 values
Description: (§1) FIG. 29. IC50 data for select compounds. The indicated cell lines were seeded at 10^4 cells per well in a 96 well plate. After allowing to attach to the plate overnight, cells were treated with various concentrations of the indicated compounds in triplicates for 72 hrs. The cell growth was measured by an SRB assay. The cell abundances under each treatment condition relative to the baseline were averaged and graphed ±S.D. The baseline is defined as the median value of the cell abundances under the treatment by the two lowest compound concentrations. The IC50 was calculated by the Prism program.

OVCAR8 = experiment: Cell growth IC50, screening of AOH1160 analogs; assay type: cell-based; details: Homo sapiens, OVCAR-8; OVCAR8; read-out: IC50 values
Description: as §1

HTC-116 = experiment: Cell growth IC50, screening of AOH1160 analogs; assay type: cell-based; details: HTC-116; read-out: IC50 values
Description: as §1

[1] = Cell growth IC50, screening of AOH1160 analogs (cell line not given); assay type: cell-based; details: read-out: IC50 values
Description: as §1

PCNA = biological target: T1, PCNA (Homo sapiens, UniProt P12004); experiment: Thermal denaturation (thermal shift) assay; assay type: binding; details: FIG. 24
T1 construct: made in house; host or cells: E. coli Rosetta 2 (DE3)
Description: FIGS. 1A-1E. AOH1160 analog interactions with PCNA. FIG. 1A: Thermal shift assay: Normalized inverse derivative thermal denaturation plots of 9 μM apo-PCNA with DMSO control is depicted with a black dashed line and PCNA in the presence of 10 μM AOH1160LE is shown in light grey and 30 μM AOH1160LE in dark grey. ΔTm values are provided. FIG. 1B: As described in FIG. 1A, in the presence of 10 μM AOH1996 depicted in light grey and 30 μM AOH1996 depicted in dark grey. FIG. 1C: Four monomers (chains A-D) of PCNA are present in the asymmetric unit of the crystal. Chains A, B, and C form the homotrimer biological unit, while chain Dis orientated perpendicular to the plane of the ring, below the interface of chains B and C and it belongs to an adjacent ring. Inset: Three molecules of AOH1160LE bind in and adjacent to the PIP box cavity of each of the PCNA ring subunits. The omit map, gray mesh, is contoured to 1.56. Two PCNA monomer subunits from adjacent rings stack against each other, placing the PIP box and IDCLs of each subunit in opposing directions. FIG. 1D: The three AOH1160LE molecules are shown as stick figure representations. Two of the compounds, left and central, bind into the PIP box cavity at known PCNA-partner/compound interaction sites. […] The electrostatic surface maps are depicted with Poisson-Boltzmann electrostatic surface potentials shown in dark grey and light grey, corresponding to −10 to +10 kT/e respectively.
Targeting the PIP box and APIM binding domain of PCNA. AOH1160, a small molecule PCNA ligand, targets the cancer-distinct L126-Y133 region of PCNA (Malkas et al., 2006) and is selectively toxic to cancer cells (Gu et al., 2018). […]
Thermal denaturation assay for PCNA-AOH1996 interaction. […] Fluorescence intensity was measured within the excitation/emission ranges 470-505/540-700 nm.

[2] = biological target: T2, PCNA interaction with RPB1 (Homo sapiens, UniProt P12004); experiment: PCNA interaction with RPB1 (immunoprecipitation, western blotting); assay type: cell-based; details: SK-N-AS
T2 construct: expressed in transfected cells; host or cells: SK-N-AS (FLAG-RPB1 exogenous; PCNA endogenous)
Description: FIGS. 5A-5E. Modulation of PCNA interaction with RNA polymerase II. FIG. 5A: Chromatin-bound (CB) proteins were fractioned from HEK293T cells expressing FLAG-tagged PCNA after the cells were treated with or without 500 nM AOH1996. Proteins in complex with FLAG-PCNA were immune-precipitated and analyzed by mass spectrometry. Shown are numbers of proteins whose abundances were altered (grey) or unaltered (black) by more than 2-fold by AOH1996 treatment. FIG. 5B: SK-N-AS cells exogenously expressing a FLAG-tagged RPB1 gene were fractioned before and after being treated with 500 nM AOH1996 overnight. PCNA in complex with chromatin-bound (CB) FLAG-RBP1 were analyzed by western blotting. FIG. 5C: Human SK-N-AS cells were treated with UV in the presence or absence of AOH1996 (AOH) or R9-caPep (caPep). Whole cell extracts were analyzed by western blotting. FIG. 5D: Cells exogenously expressing FLAG-tagged wildtype RPB1 or FLAG-tagged APIM-mutant RPB1 gene were fractioned. PCNA in complex with chromatin-bound (CB) FLAG-RBP1 were analyzed by western blotting. FIG. 5E: HEK293T cells were transiently transfected with a FLAG-tagged wildtype RPB1 (APIM WT) gene or mutant RPB1 gene (APIM mutant). The intracellular MCM7 and RBP1 (both the hypo-phosphorylated RNAPIIa and hyper-phosphorylated RNAPIIo forms) were analyzed by western blot after cells were treated by the indicated agents and/or UV.
Modulating PCNA interaction with transcription machinery.
Cell fractionation and immunoprecipitation. Cells were fractionated as previously described (Li et al., 2018). Briefly, intact nuclei isolated following osmotic lysis were homogenized using a 21 G needle. Chromatin was pelleted by centrifugation and incubated overnight at 4° C. with benzonase in two volumes of nuclease buffer (20 mM HEPES pH 7.5, 1.5 mM MgCl2, 1 mM EDTA, 150 mM KCl, 10% glycerol, 0.5 U μl-1 benzonase). The resulting supernatant was collected as the CB fraction. Alternatively, we sequentially incubated the chromatin pellet with RNase A and benzonase and collected the supernatants after each digestion as the CB:RNA+ and CB:RNA− fractions, respectively (Li et al., 2018).

SK-N-AS = experiment: Cell growth IC50, screening of AOH1160 analogs; assay type: cell-based; details: Homo sapiens, read-out: IC50 values
Description: as §1

SK-N-BE(2)c = experiment: Cell growth IC50, screening of AOH1160 analogs; assay type: cell-based; details: Homo sapiens
Description: as §1

T1 sequence (P12004 whole entry): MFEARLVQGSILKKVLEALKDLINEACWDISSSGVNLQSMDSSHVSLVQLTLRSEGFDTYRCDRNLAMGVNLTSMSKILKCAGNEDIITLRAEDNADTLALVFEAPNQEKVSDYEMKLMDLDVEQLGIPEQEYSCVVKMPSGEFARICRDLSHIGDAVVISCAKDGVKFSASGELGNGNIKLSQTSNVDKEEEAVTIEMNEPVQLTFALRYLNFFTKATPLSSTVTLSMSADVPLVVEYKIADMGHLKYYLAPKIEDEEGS

Question: For OC[C@H]1O[C@@H](n2cnc3cc(Cl)c(Cl)cc32)[C@H](O)[C@@H]1O [DRB, reference compound], which “γH2A.X levels, AOH1996 with DRB” value (γH2A.X) is on record?
Answer: The value was “can suppress the DNA damage induced by AOH1996”.

Question: For O=C(CNC(=O)c1cccc2ccccc12)Nc1ccccc1Sc1ccc(C(F)(F)F)cc1 [AOH1996S-4CF3, N-(2-oxo-2-((2-((4-(trifluoromethyl)phenyl)thio)phenyl)amino)ethyl)-1-naphthamide], which IC50 (RKO) is on record?
Answer: Its IC50 is 10 µM.

Question: What about the IC50 (OVCAR8) of the same compound?
Answer: The IC50 was 3.4 µM.

Question: And the IC50 (HTC-116)?
Answer: The IC50 was 4.6 µM.

Question: Which IC50 [1] does the source give for CC(C)[C@H](NC(=O)c1cccc2ccccc12)C(=O)Nc1ccccc1Oc1ccccc1 [AOH1160LV, (S)—N-(3-methyl-1-oxo-1-((2-phenoxyphenyl)amino)butan-2-yl)-1-naphthamide] here?
Answer: The IC50 was > 10 µM.

Question: And the “ΔTm (TSA data)” value (PCNA)?
Answer: Its value is “very similar ΔTm compared to AOH1996”.

Question: For Cc1ccc(Sc2ccccc2NC(=O)[C@H](CCC(=O)O)NC(=O)c2cccc3ccccc23)cc1 [AOH1996SLE-4CH3, (S)-4-(1-naphthamido)-5-oxo-5-((2-(p-tolylthio)phenyl)amino) pentanoic acid], which IC50 [1] is on record?
Answer: Its IC50 is > 10 µM.

Question: With O=C(CCNC(=O)c1cccc2ccccc12)Nc1ccccc1Oc1ccccc1 [AOH1160e, N-(3-oxo-3-((2-phenoxyphenyl)amino)propyl)-1-naphthamide] as the compound, how does the IC50 [1] read?
Answer: The IC50 was > 10 µM.

Question: Which “PCNA interaction with RPB1” value ([2]; chromatin-bound) does the source give for “caPep: contains the L126-Y133 sequence of PCNA that overlaps APIM-interacting region of PCNA (LGIPEQEY; UniProt P12004 126-133, looked up, fragment) [reference compound]” here?
Answer: The value was “blocked PCNA interaction with RPB1”.

Question: And the RPB1 levels ([2]; whole cell extracts)?
Answer: Its RPB1 levels is “increased RPB1 levels”.

Question: With COc1cccc(Oc2ccccc2NC(=O)c2cccc3ccccc23)c1 [AOH1996t, N-(2-(3-methoxyphenoxy)phenyl)-1-naphthamide] as the compound, how does the IC50 [1] read?
Answer: The IC50 was > 10 µM.

Question: With COc1cccc(Oc2ccccc2NC(=O)[C@H](CCC(=O)O)NC(=O)c2cccc3ccccc23)c1 [AOH1996LE, (S)-4-(1-naphthamido)-5-((2-(3-methoxyphenoxy)phenyl)amino)-5-oxopentanoic acid] as the compound, how does the IC50 [1] read?
Answer: The IC50 was > 10 µM.

Question: With O=C(CNC(=O)c1cccc2ccccc12)Nc1ccccc1Oc1ccc(O)cc1 [AOH1160-4′-OH] as the compound, how does the IC50 (SK-N-AS) read?
Answer: Its IC50 is 0.156 µM.

Question: Which IC50 (SK-N-AS) does the source give for Cc1ccccc1Oc1ccccc1NC(=O)CNC(=O)c1cccc(C)c1C [AOH-DMB-2CH3, 2,3-dimethyl-N-(2-oxo-2-((2-(o-tolyloxy)phenyl)amino)ethyl)benzamide] here?
Answer: Its IC50 is 1.12 µM.

Question: What about the IC50 (SK-N-BE(2)c) of the same compound?
Answer: Its IC50 is 1.03 µM.

Question: For O=C(CNC(=O)c1cccc2ccccc12)Nc1ccccc1C(=O)Nc1ccccc1 [AOH1160-2AB, N-(2-oxo-2-((2-(phenylcarbamoyl)phenyl)amino)ethyl)-1-naphthamide], which IC50 [1] is on record?
Answer: The IC50 was > 10 µM.

Question: Which results are given for Cc1ccc(Sc2ccccc2NC(=O)CNC(=O)c2cccc3ccccc23)cc1 [AOH1996S-4CH3, N-(2-oxo-2-((2-(p-tolylthio)phenyl)amino)ethyl)-1-naphthamide]?
Answer: IC50 (RKO): 0.503 µM; IC50 (OVCAR8): 0.291 µM; IC50 (HTC-116): 0.345 µM

Question: Which IC50 [1] does the source give for COc1cccc(Oc2ccccc2NC(=O)CNC(=O)Cc2cccc3ccccc23)c1 [AOH1996eNph, N-(2-(3-methoxyphenoxy)phenyl)-2-(2-(naphthalen-1-yl)acetamido) acetamide] here?
Answer: Its IC50 is > 10 µM.

Question: For CC(C)[C@@H](NC(=O)c1cccc2ccccc12)C(=O)Nc1ccccc1Oc1ccccc1 [AOH1160DV, (R)—N-(3-methyl-1-oxo-1-((2-phenoxyphenyl)amino)butan-2-yl)-1-naphthamide], which IC50 [1] is on record?
Answer: The IC50 was > 10 µM.

Question: Which results are given for O=C(CNC(=O)c1cccc2ccccc12)Nc1ccccc1Nc1ccccc1 [AOH1160NH]?
Answer: IC50 (RKO): > 10 µM; IC50 (OVCAR8): > 10 µM; IC50 (HTC-116): > 10 µM

Question: For O=C(CNC(=O)c1nccc2ccccc12)Nc1ccccc1Oc1ccncc1 [AOH1167], which IC50 [1] is on record?
Answer: Its IC50 is 42 µM.

Question: Which IC50 [1] does the source give for NCCCC[C@@H](NC(=O)c1cccc2ccccc12)C(=O)Nc1ccccc1Oc1ccccc1 [AOH1160DK] here?
Answer: The IC50 was > 10 µM.

Question: Which IC50 [1] does the source give for O=C(CNC(=O)c1cccc2ccccc12)Nc1ccccc1S(=O)(=O)c1ccccc1 [AOH1160SO2, N-(2-oxo-2-((2-(phenylsulfonyl)phenyl)amino)ethyl)-1-naphthamide] here?
Answer: Its IC50 is > 10 µM.

Question: With COc1cccc(Oc2ccccc2NC(=O)CNC(=O)c2ccc(-c3ccccc3)cc2)c1 [AOH1996BiNph, N-(2-((2-(3-methoxyphenoxy)phenyl)amino)-2-oxoethyl)-[1,1′-biphenyl]-4-carboxamide] as the compound, how does the IC50 [1] read?
Answer: The IC50 was > 10 µM.

Question: Which results are given for O=C(CNC(=O)c1cccc2ccccc12)Nc1ccccc1Sc1cccc(C(F)(F)F)c1 [AOH1996S-3CF3, N-(2-oxo-2-((2-((3-(trifluoromethyl)phenyl)thio)phenyl)amino)ethyl)-1-naphthamide]?
Answer: IC50 (RKO): 8 µM; IC50 (OVCAR8): 2.6 µM; IC50 (HTC-116): 4.6 µM

Question: Which IC50 [1] does the source give for COc1cccc(Oc2ccccc2NC(=O)CNC(=O)CCc2cccc3ccccc23)c1 [AOH1996eeNph, N-(2-((2-(3-methoxyphenoxy)phenyl)amino)-2-oxoethyl)-3-(naphthalen-1-yl) propanamide] here?
Answer: Its IC50 is > 10 µM.

Question: With O=C(O)CC[C@@H](NC(=O)c1cccc2ccccc12)C(=O)Nc1ccccc1Oc1ccccc1 [AOH1160DE] as the compound, how does the IC50 [1] read?
Answer: The IC50 was > 10 µM.

Question: Which IC50 [1] does the source give for O=C(Nc1ccccc1Oc1ccccc1)c1cccc2ccccc12 [AOH1160t] here?
Answer: Its IC50 is > 10 µM.

Question: Which IC50 [1] does the source give for NCCCC[C@H](NC(=O)c1cccc2ccccc12)C(=O)Nc1ccccc1Oc1ccccc1 [AOH1160LK] here?
Answer: The IC50 was > 10 µM.

Reference: patent publication US20250171404A1, “PCNA INHIBITORS AND USES THEREOF” (CITY OF HOPE, priority 2022, published 2025)
